The values below come from patent EP3666770A1, “NOVEL HETEROCYCLIC COMPOUNDS AS CDK8/19 INHIBITORS” (Joint Stock Company "Biocad", priority 2017, dated 2019).

Data set [1] in a line: Chemical stability in human blood plasma. The data set is classed as in vitro ADME. To be noted: pooled human blood plasma; 10 µM; 4 hours at 37°C; substance amount in % after thermostatting. The method, boiled down:
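Pooled plasma from ten healthy human donors; compound diluted from 10 mM DMSO stock to 10 µm final and incubated 4 h at 37°C. After acetonitrile protein precipitation, HPLC peak areas before and after incubation were compared; value is % compound remaining.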

The test system of data set [2] is MV4-11. In words: Cell-based antiproliferative test (AlamarBlue), MV4-11. Particulars: 120 h incubation, average values of several tests, read-out: MV-4-11 IC50, mkM. (In general: The colour change of resazurin is a common sign of viable cells or microbes.)
Data set [3] in a line: General cytotoxicity test on HepG2 cells. In kind it is cell-based. To be noted: human, HepG2 cells; 72 h incubation; 200 to 0.78 µM; average values of several tests; read-out: Hep-G2 CC50, mkM. Here is the method:
Cell viability was assessed using the above method. Table 6. […] The results are presented as average values of activity obtained in several tests.

Data set [4] is described as follows: Enzyme stability in human liver S9 fractions. In kind it is in vitro ADME. Particulars: 0,5 mg/mL pooled human liver S9 fractions, 10 µM compound, 37°C, pH=7,4; for microsomal CLint at 10 µM: pH 7.4. Here is the method: Measuring of candidates' enzyme stability enabled estimation of the stability of the present compounds towards the action of enzymes in human liver S9 fractions.
Enzyme degradation rate was measured by incubating the reaction mixture in a dry block thermostat at 37°C, said reaction mixture comprising 0,5 mg/mL of pooled human liver S9 fractions (XenoTech, USA, cat#H0610), 10 µM compound, 2 mM β-nicotinamide adenine dinucleotide (Carbosynth, UK, cat#NN10871) and 4 mM magnesium chloride in 0,1 M sodium-phosphate buffer, pH=7,4. The reaction was quenched with acetonitrile (100 µL of acetonitrile / 100 µL of the reaction mixture). After quenching, the samples were centrifuged at 10000 rpm for 10 minutes. Supernatant fluid was tested by chromatographic technique using Agilent1200 (Agilent, USA). Chromatographic analysis was performed in a gradient elution regime with a flow rate of 1 mL/min. A graph of the logarithm of substance's peak area as a function of time was made.

Data set [5] is described as follows: Permeability through Caco-2 cell monolayer. In kind it is in vitro ADME. Particulars: human, Caco-2; for Papp A→B at 2 h, 10 µM: A->B transfer, pH 6.5 -> pH 7.4, 2 hours at 37 °C; for efflux ratio at 2 h, 10 µM: efflux = Papp B-A / Papp A-B. Put shortly:
(§1)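 Caco-2 monolayers grown for 21 days (Lucifer Yellow integrity check) received 10 µM compound apically at pH 6.5 (A→B) or basolaterally at pH 7.4 with 1% BSA on the basolateral side (B→A). After 2 h at 37 °C, both chambers were quantified by HPLC. Efflux ratio = Papp B→A / Papp A→B.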
A general note: Caco-2 cells form a polarised layer with tight junctions and transporters.

Data set [6] has as its system KG-1. Put plainly: Cell-based antiproliferative test (AlamarBlue), KG-1. Particulars: 120 h incubation, average values of several tests, read-out: KG-1 IC50, mkM.
Data set [7] is described as follows: Chemical stability in simulated gastric fluid (SGF). The data set is classed as physicochemical. Particulars: SGF without enzymes, pH=1,4; 10 µm; 2 hours at 37°C; substance amount in % after thermostatting. Put shortly:
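Compounds at […] (diluted from DMSO stock) were incubated for 2 h at 37 °C in enzyme-free simulated gastric fluid, pH=1,4. HPLC peak areas before and after incubation gave the % of compound remaining.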

Data set [8] has as its system Caco-2 cell monolayer. Put plainly: Permeability through Caco-2 cell monolayer. In kind it is in vitro ADME. Particulars: efflux = Papp B-A / Papp A-B. Put shortly:
as §1

Data set [9] can be described thus: Enzyme stability in human liver microsomes. The data set is classed as in vitro ADME. To be noted: pH 7.4; 0,5 mg/mL pooled human liver microsomes; 10 µM compound; 37°C; pH=7,4. Put shortly:
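Pooled human liver microsomes (0,5 mg/mL) incubated at 37 °C with 10 µM compound, 2 mM β-NAD and 4 mM MgCl2 in 0,1 M sodium phosphate, pH 7,4. Samples quenched with acetonitrile and analysed by HPLC. Elimination rate constant taken from the slope of log peak area versus time, giving t1/2 and CLint.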

Each structure is given as a SMILES string. Like-named read-outs stand apart in the source and are kept apart here.

The term IC50 denotes the point on the concentration scale where inhibition reaches its midpoint. The CC50 is the concentration giving 50% cytotoxicity. The microsomal CLint is the rate of metabolic loss divided by the concentration. Low readings indicate greater metabolic stability, high ones faster metabolism. As usually defined, the Papp A→B is how fast a substance crosses the layer from the apical side. A high value points to ready permeation. As a reminder, the efflux ratio is a quotient of directional permeabilities that is used to spot active efflux. As for `COCCNC(=O)c1cnc2c(N)ncc(-c3ccc(-c4cnn(C)c4)cc3)c2c1` [CDK8-3-24, 8-Amino-N-(2-methoxyethyl)-5-(4-(1-methyl-1H-pyrazol-4-yl)phenyl)-1,7-naphthyridine-3-carboxamide], the “Stability in blood plasma, %” value in data set [1] was 89.7%. The IC50 in data set [2] (Homo sapiens, MV4-11, 120 h) was determined as 99 nM. The cytotoxic concentration (CC50) at 72 h in [3] was greater than 200000 nM. In [4], this compound came in with a microsomal CLint at 10 µM of 4.6 µL/min/mg. In [5], the apparent permeability from apical to basolateral (Papp A→B) at 2 h, 10 µM was 17 ×10⁻⁶ cm/s and the efflux ratio at 2 h, 10 µM turned out to be 1.1.

Take `COCCN(C)C(=O)c1cnc2c(N)ncc(-c3ccc(-c4cnn(C)c4)cc3)c2c1` [CDK8-3-32]: in data set [1], the “Stability in blood plasma, %” value is 100%. Moreover, the IC50 in [2] (Homo sapiens, MV4-11, 120 h) amounted to 10 nM. For the same compound, the IC50 in data set [6] (Homo sapiens, KG-1) was less than 10 nM. Besides, the CC50 at 72 h in data set [3] came to 20700 nM. Besides, in data set [4], the microsomal CLint at 10 µM worked out at 3.8 µL/min/mg. Moreover, in data set [5], the Papp A→B at 2 h, 10 µM worked out at 24.9 ×10⁻⁶ cm/s and the efflux ratio at 2 h, 10 µM was determined as 0.7.

For the compound `Cn1cc(-c2ccc(-c3cnc(N)c4ncc(C(=O)N5CCC5)cc34)cc2)cn1` [CDK8-3-26, (8-Amino-5-(4-(1-methyl-1H-pyrazol-4-yl)phenyl)-1,7-naphthyridin-3-yl) (azetidin-1-yl)methanone], the “Stability in blood plasma, %” value in data set [1] is 95.8%. The IC50 in [2] (Homo sapiens, MV4-11, 120 h) worked out at 11 nM. For the same compound, in data set [6] (Homo sapiens, KG-1), the half-maximal inhibitory concentration (IC50) was 3 nM. Also, the CC50 at 72 h in data set [3] turned out to be 4900 nM. Moreover, the microsomal CLint at 10 µM in data set [4] was 3.25 µL/min/mg. Moreover, in data set [5], the Papp A→B at 2 h, 10 µM was 53.7 ×10⁻⁶ cm/s and the efflux ratio at 2 h, 10 µM was 0.3.

For `COc1ccc(-c2cnc3[nH]cc(C(=O)c4cccnc4)c3c2)c(C#N)c1` [CDK8-4-28, 5-Methoxy-2-(3-nicotinoyl-1H-pyrrolo[2,3-b]pyridin-5-yl) benzonitrile], in data set [1], the “Stability in blood plasma, %” value is 100%. In addition, the concentration for half-maximal inhibition (IC50) in data set [2] (Homo sapiens, MV4-11, 120 h) was greater than 1000 nM. Further, in data set [7], the “Stability in SGF, %” value is on record as 100%. In addition, the CC50 at 72 h in data set [3] is greater than 200000 nM. For the same compound, the efflux in data set [8] is recorded as 0.03. In data set [5], this compound returned a Papp A→B at 2 h, 10 µM of 68.9 ×10⁻⁶ cm/s. The compound also gave an intrinsic metabolic clearance (microsomal CLint) at 10 µM in data set [9] of 6.8 µL/min/mg.

In the case of `Cn1cc(-c2ccc(-c3cncc4ncc(C(=O)NCC5CC5)cc34)cc2)cn1` [CDK8-3-39], the IC50 in data set [2] was determined as 55 nM; in [6] it was 5 nM. In addition, the “Stability in S9, Clint” value in [4] amounted to 10.3 µL/min/mg.

For the compound `COc1cc(-c2cnc3[nH]cc(C(=O)c4ccccn4)c3c2)ccc1N(C)C` [CDK8-4-21, (5-(4-(Dimethylamino)-3-methoxyphenyl)-1H-pyrrolo[2,3-b]pyridin-3-yl)(pyridin-2-yl)methanone], in data set [1], the “Stability in blood plasma, %” value came out at 100%. In addition, in [2] (Homo sapiens, MV4-11, 120 h), the IC50 amounted to 740 nM. Further, the “Stability in SGF, %” value in data set [7] is 100%. In addition, in data set [3], the CC50 at 72 h turned out to be 4700 nM. In addition, in data set [8], the efflux is recorded as 0.09. The Papp A→B at 2 h, 10 µM in data set [5] was found to be 106 ×10⁻⁶ cm/s.

Consider `COCCN(C)C(=O)c1cnc2cncc(-c3ccc(-c4cnn(C)c4)cc3)c2c1` [CDK8-3-25, N-(2-Methoxyethyl)-N-methyl-5-(4-(1-methyl-1H-pyrazol-4-yl)phenyl)-1,7-naphthyridine-3-carboxamide], for which, in data set [2] (Homo sapiens, MV4-11, 120 h), the IC50 was 134 nM. The cytotoxic concentration (CC50) at 72 h in [3] is greater than 100000 nM. For the same compound, the microsomal CLint at 10 µM in data set [4] was determined as 3.3 µL/min/mg. Moreover, in [5], the Papp A→B at 2 h, 10 µM was determined as 29.3 ×10⁻⁶ cm/s and the efflux ratio at 2 h, 10 µM amounted to 0.6.

For the compound `Cn1cc(-c2ccc(-c3cnc(N)c4ncc(C(=O)NCCO)cc34)cc2)cn1` [CDK8-3-42, 8-Amino-N-(2-hydroxyethyl)-5-(4-(1-methyl-1H-pyrazol-4-yl)phenyl)-1,7-naphthyridine-3-carboxamide], in [1], the “Stability in blood plasma, %” value was determined as 100%. In [2] (Homo sapiens, MV4-11, 120 h), the IC50 came to 28 nM. In addition, the IC50 in [6] (Homo sapiens, KG-1) amounted to 9 nM. Moreover, in data set [3], the CC50 at 72 h was determined as 15900 nM. The microsomal CLint at 10 µM in [4] came out at 0.5 µL/min/mg. In data set [5], the Papp A→B at 2 h, 10 µM came out at 11.8 ×10⁻⁶ cm/s and the efflux ratio at 2 h, 10 µM amounted to 1.6.

As to `Cn1cc(-c2ccc(-c3cnc(N)c4ncc(C(=O)N5CCOCC5)cc34)cc2)cn1` [CDK8-3-27, (8-Amino-5-(4-(1-methyl-1H-pyrazol-4-yl)phenyl)-1,7-naphthyridin-3-yl) (morpholino)methanone], the “Stability in blood plasma, %” value in [1] is on record as 94.2%. For the same compound, the IC50 in data set [2] (Homo sapiens, MV4-11, 120 h) was found to be 66 nM. In addition, the CC50 at 72 h in data set [3] is 19400 nM. Besides, the microsomal CLint at 10 µM in data set [4] turned out to be 1.55 µL/min/mg. Also, in data set [5], the Papp A→B at 2 h, 10 µM was determined as 22.6 ×10⁻⁶ cm/s and the efflux ratio at 2 h, 10 µM worked out at 0.9.
